# In US20250145594A1, “MODULATORS OF THE INTEGRATED STRESS PATHWAY” (Calico Life Sciences LLC, priority 2020, published 2025):
# Tested on: ATF4 luciferase reporter in HEK293T cells
# Experiment: ATF4-Luc assay (in vitro model of VWMD)
# Format: cell-based, human
# Conditions: Homo sapiens, HEK-293T, 7 h, HEK293T cells carrying the ATF4 luciferase reporter, 1 μg/mL tunicamycin, One Glo luminescence
# Description: In order to test exemplary compounds of the invention in a cellular context, a stable VWMD cell line was first constructed. The ATF4 reporter was prepared by fusing the human full-length ATF4 5′-UTR (NCBI Accession No. BC022088.2) in front of the firefly luciferase (FLuc) coding sequence lacking the initiator methionine as described in Sidrauski et al (eLife 2013). The construct was used to produce recombinant retroviruses using standard methods and the resulting viral supernatant was used to transduce HEK293T cells, which were then subsequently selected with puromycin to generate a stable cell line.
# HEK293T cells carrying the ATF4 luciferase reporter were plated on polylysine coated 384-well plates (Greiner Bio-one) at 30,000 cells per well. Cells were treated the next day with 1 μg/mL tunicamycin and 200 nM of a compound of Formula (I) for 7 hours. Luminescence was measured using One Glo (Promega) as specified by the manufacturer. Cells were maintained in DMEM with L-glutamine supplemented with 10% heat-inactivated FBS (Gibco) and Antibiotic-Antimycotic solution (Gibco).
# Table 4 below summarizes the EC50 data obtained using the ATF4-Luc assay for exemplary compounds of the invention.
row,Structure (SMILES),EC50
1,"O=C(NC12CC(n3cc(O[C@H]4C[C@@H](OC(F)(F)F)C4)cn3)(C1)C2)[C@H]1C[C@@H](O)c2cc(Cl)ccc2O1 [Compound 409, (2R,4R)-6-chloro-4-hydroxy-N-[3-(4-{[cis-3-(trifluoromethoxy)cyclobutyl]oxy}-1H-pyrazol-1-yl)bicyclo[1.1.1]pentan-1-yl]-3,4-dihydro-2H-1-benzopyran-2-carboxamide]",< 10 nM
2,"O=C(NC12CC(n3cc([C@H]4C[C@@H](OC(F)(F)F)C4)nn3)(C1)C2)[C@H]1C[C@@H](O)c2cc(Cl)c(F)cc2O1 [Compound 473, (2R,4R)-6-chloro-7-fluoro-4-hydroxy-N-(3-{4-[(1s,3S)-3-(trifluoromethoxy)cyclobutyl]-1H-1,2,3-triazol-1-yl}bicyclo[1.1.1]pentan-1-yl)-3,4-dihydro-2H-1-benzopyran-2-carboxamide]",< 10 nM
3,"O=C(CO[C@H]1C[C@@H](OC(F)(F)F)C1)NC12CCC(NC(=O)[C@H]3C[C@@H](O)c4cc(C(F)(F)F)ccc4O3)(CC1)C[C@@H]2O [Compound 460, (2R,4R)-4-hydroxy-N-[(3S)-3-hydroxy-4-(2-{[(1s,3R)-3-(trifluoromethoxy)cyclobutyl]oxy}acetamido)bicyclo[2.2.2]octan-1-yl]-6-(trifluoromethyl)-3,4-dihydro-2H-1-benzopyran-2-carboxamide]",< 10 nM
4,"O=C(COc1ccc(Cl)c(F)c1)NC12CC(C(=O)NC34CC(C(F)(F)F)(C3)C4)(C1)C2 [Compound 353, 3-[2-(4-chloro-3-fluorophenoxy)acetamido]-N-[3-(trifluoromethyl)bicyclo[1.1.1]pentan-1-yl]bicyclo[1.1.1]pentane-1-carboxamide]",50 to 250 nM
5,"O=C(NC12CC(n3cc(CCCOC(F)(F)F)nn3)(C1)C2)[C@H]1C[C@@H](O)c2cc(Cl)ccc2O1 [Compound 516, (2R,4R)-6-chloro-4-hydroxy-N-(3-{4-[3-(trifluoromethoxy)propyl]-1H-1,2,3-triazol-1-yl}bicyclo[1.1.1]pentan-1-yl)-3,4-dihydro-2H-1-benzopyran-2-carboxamide]",< 10 nM
6,"O=C(NC12CC(n3cc(-c4ccn(C(F)(F)F)n4)cn3)(C1)C2)[C@H]1C[C@@H](O)c2cc(Cl)ccc2O1 [Compound 556, (2R,4R)-6-chloro-4-hydroxy-N-{3-[1-(trifluoromethyl)-1H,1′H-[3,4′-bipyrazol]-1′-yl]bicyclo[1.1.1]pentan-1-yl}-3,4-dihydro-2H-1-benzopyran-2-carboxamide]",< 10 nM
7,"O=C(COc1ccc(Cl)c(F)c1)NC12CC(c3ccc(OCCOC(F)(F)F)nc3)(C1)C2 [Compound 456, 2-(4-chloro-3-fluorophenoxy)-N-(3-{6-[2-(trifluoromethoxy)ethoxy]pyridin-3-yl}bicyclo[1.1.1]pentan-1-yl)acetamide]",50 to 250 nM
8,"O=C(NC12CCC(n3cc(OCCOC(F)(F)F)cn3)(C1)C2)[C@H]1C[C@@H](O)c2cc(Cl)c(F)cc2O1 [Compound 590, (2R,4R)-6-chloro-7-fluoro-4-hydroxy-N-(4-{4-[2-(trifluoromethoxy)ethoxy]-1H-pyrazol-1-yl}bicyclo[2.1.1]hexan-1-yl)-3,4-dihydro-2H-1-benzopyran-2-carboxamide]",10 to 50 nM
9,"O=C(NC12CC(n3cc(C(=O)N4CC(COC(F)(F)F)C4)cn3)(C1)C2)[C@H]1C[C@@H](O)c2cc(Cl)ccc2O1 [Compound 329, (2R,4R)-6-chloro-4-hydroxy-N-[3-(4-{3-[(trifluoromethoxy)methyl]azetidine-1-carbonyl)-1H-pyrazol-1-yl}bicyclo[1.1.1]pentan-1-yl]-3,4-dihydro-2H-1-benzopyran-2-carboxamide]",< 10 nM
10,"Cc1ccc(-c2cnn(C34CC(NC(=O)[C@H]5C[C@@H](O)c6cc(Cl)ccc6O5)(C3)C4)c2)nc1 [Compound 554, (2R,4R)-6-chloro-4-hydroxy-N-{3-[4-(5-methylpyridin-2-yl)-1H-pyrazol-1-yl]bicyclo[1.1.1]pentan-1-yl}-3,4-dihydro-2H-1-benzopyran-2-carboxamide]",< 10 nM
11,"O=C(NC12CC(n3cc(-c4ccc(C(F)(F)F)cn4)cn3)(C1)C2)[C@H]1C[C@@H](O)c2cc(F)c(F)cc2O1 [Compound 553, (2R,4R)-6,7-difluoro-4-hydroxy-N-(3-{4-[5-(trifluoromethyl)pyridin-2-yl]-1H-pyrazol-1-yl}bicyclo[1.1.1]pentan-1-yl)-3,4-dihydro-2H-1-benzopyran-2-carboxamide]",< 10 nM
12,"O=C(N[C@H]1CC[C@H](n2cc(OCCCC(F)(F)F)cn2)CC1)[C@H]1C[C@@H](O)c2cc(Cl)ccc2O1 [Compound 526, (2R,4R)-6-chloro-4-hydroxy-N-{(1r,4R)-4-[4-(4,4,4-trifluorobutoxy)-1H-pyrazol-1-yl]cyclohexyl}-3,4-dihydro-2H-1-benzopyran-2-carboxamide]",10 to 50 nM
13,"O=C(N[C@H]1CC[C@H](n2cc(OCCOC(F)(F)F)cn2)CC1)[C@H]1C[C@H](O)c2cc(C(F)(F)F)c(F)cc2O1 [Compound 486, (2R,4R)-7-fluoro-4-hydroxy-N-[(1r,4R)-4-{4-[2-(trifluoromethoxy)ethoxy]-1H-pyrazol-1-yl}cyclohexyl]-6-(trifluoromethyl)-3,4-dihydro-2H-1-benzopyran-2-carboxamide]",< 10 nM
14,"O=C(NC12CC(n3cc(N4CC[C@@H](COC(F)(F)F)C4)cn3)(C1)C2)[C@H]1C[C@@H](O)c2cc(Cl)ccc2O1 [Compound 336, (2R,4R)-6-chloro-4-hydroxy-N-[3-(4-{(3R)-3-[(trifluoromethoxy)methyl]pyrrolidin-1-yl}-1H-pyrazol-1-yl)bicyclo[1.1.1]pentan-1-yl]-3,4-dihydro-2H-1-benzopyran-2-carboxamide]",50 to 250 nM
15,"O=C(NC12CC(n3cc(C(=O)N4CC(OC(F)(F)F)C4)cn3)(C1)C2)[C@H]1C[C@@H](O)c2cc(Cl)ccc2O1 [Compound 341, (2R,4R)-6-chloro-4-hydroxy-N-(3-{4-[3-(trifluoromethoxy)azetidine-1-carbonyl]-1H-pyrazol-1-yl}bicyclo[1.1.1]pentan-1-yl)-3,4-dihydro-2H-1-benzopyran-2-carboxamide]",10 to 50 nM
16,"O=C(NC12CC(n3cc4c(n3)CN(C(=O)COC(F)(F)F)C4)(C1)C2)[C@H]1C[C@@H](O)c2cc(Cl)c(F)cc2O1 [Compound 511, (2R,4R)-6-chloro-7-fluoro-4-hydroxy-N-(3-{5-[(trifluoromethoxy)acetyl]-5,6-dihydropyrrolo[3,4-c]pyrazol-2(4H)-yl}bicyclo[1.1.1]pentan-1-yl)-3,4-dihydro-2H-1-benzopyran-2-carboxamide]",10 to 50 nM
17,"O=C(NC12CC(n3cc(-c4ccc(C(F)(F)F)cn4)cn3)(C1)C2)[C@@H]1C[C@@H](O)c2cc(Cl)ccc2O1 [Compound 317, (2S,4R)-6-chloro-4-hydroxy-N-(3-{4-[5-(trifluoromethyl)pyridin-2-yl]-1H-pyrazol-1-yl}bicyclo[1.1.1]pentan-1-yl)-3,4-dihydro-2H-1-benzopyran-2-carboxamide]",10 to 50 nM
18,"O=C(NC12CC(n3cc(C[C@H]4C[C@H](OC(F)(F)F)C4)cn3)(C1)C2)[C@H]1C[C@@H](O)c2cc(Cl)ccc2O1 [Compound 529, (2R,4R)-6-chloro-4-hydroxy-N-[3-(4-{[(1r,3S)-3-(trifluoromethoxy)cyclobutyl]methyl}-1H-pyrazol-1-yl)bicyclo[1.1.1]pentan-1-yl]-3,4-dihydro-2H-1-benzopyran-2-carboxamide]",10 to 50 nM
